Laboratory results as given in PubChem BioAssay AID1259407 (Chemical Carcinogenesis Research Information System (CCRIS), 2018).
Calls of active or inactive are those of the source. No rule for the calls is given here.

Test system: CCRIS mutagenicity, Ames/micronucleus/aberration tests
Test: CCRIS mutagenicity studies
[1] = Test System: AMES SALMONELLA TYPHIMURIUM, Strain/Indicator: TA98, Metabolic Activation: NONE, Method: PREINCUBATION
[2] = Test System: AMES SALMONELLA TYPHIMURIUM, Strain/Indicator: TA98, Metabolic Activation: NONE, Method: STANDARD PLATE
[3] = Test System: AMES SALMONELLA TYPHIMURIUM, Strain/Indicator: TA100, Metabolic Activation: NONE, Method: PREINCUBATION
[4] = Test System: AMES SALMONELLA TYPHIMURIUM, Strain/Indicator: TA100, Metabolic Activation: NONE, Method: STANDARD PLATE
[5] = Test System: AMES SALMONELLA TYPHIMURIUM, Strain/Indicator: TA1537, Metabolic Activation: NONE, Method: STANDARD PLATE
[6] = Test System: AMES SALMONELLA TYPHIMURIUM, Strain/Indicator: TA98, Metabolic Activation: RAT, LIVER, S-9, AROCLOR 1254, Method: STANDARD PLATE
[7] = Test System: AMES SALMONELLA TYPHIMURIUM, Strain/Indicator: TA100, Metabolic Activation: RAT, LIVER, S-9, AROCLOR 1254, Method: STANDARD PLATE
[8] = Test System: AMES SALMONELLA TYPHIMURIUM, Strain/Indicator: TA1535, Metabolic Activation: NONE, Method: STANDARD PLATE
[9] = Test System: AMES SALMONELLA TYPHIMURIUM, Strain/Indicator: TA1535, Metabolic Activation: RAT, LIVER, S-9, AROCLOR 1254, Method: STANDARD PLATE
[10] = Test System: AMES SALMONELLA TYPHIMURIUM, Strain/Indicator: TA1538, Metabolic Activation: NONE, Method: STANDARD PLATE
[11] = Test System: AMES SALMONELLA TYPHIMURIUM, Strain/Indicator: TA1538, Metabolic Activation: RAT, LIVER, S-9, AROCLOR 1254, Method: STANDARD PLATE
[12] = Test System: MOUSE LYMPHOMA, Strain/Indicator: L5178Y (TK+/TK-), Metabolic Activation: NONE, Method: SUSPENSION/PLATE
[13] = Test System: MOUSE LYMPHOMA, Strain/Indicator: L5178Y (TK+/TK-), Metabolic Activation: RAT, LIVER, S-9, AROCLOR 1254, Method: SUSPENSION/PLATE

SMILES: CCOC(=O)CC(SP(=O)(OC)OC)C(=O)OCC (configuration not stated)
- mutagenic call (End Point: IN VITRO CHROMOSOMAL ABERRATIONS, Test System: CHO CELLS, Metabolic Activation: NONE): inactive; negative
- mutagenic call (Test System: AMES SALMONELLA TYPHIMURIUM, Strain/Indicator: TA97, Metabolic Activation: HAMSTER, LIVER, S-9, AROCLOR 1254 (10 OR 30%), Method: PREINCUBATION): inactive; negative
- mutagenic call (Test System: AMES SALMONELLA TYPHIMURIUM, Strain/Indicator: TA97, Metabolic Activation: NONE, Method: PREINCUBATION): inactive; negative
- mutagenic call (Test System: AMES SALMONELLA TYPHIMURIUM, Strain/Indicator: TA97, Metabolic Activation: RAT, LIVER, S-9, AROCLOR 1254 (10 OR 30%), Method: PREINCUBATION): inactive; negative
- mutagenic call (Test System: AMES SALMONELLA TYPHIMURIUM, Strain/Indicator: TA98, Metabolic Activation: HAMSTER, LIVER, S-9, AROCLOR 1254 (10 OR 30%), Method: PREINCUBATION): inactive; negative
- mutagenic call [1]: inactive; negative
- mutagenic call [2]: inactive; negative
- mutagenic call (Test System: AMES SALMONELLA TYPHIMURIUM, Strain/Indicator: TA98, Metabolic Activation: RAT, LIVER, S-9, AROCLOR 1254 (10 OR 30%), Method: PREINCUBATION): inactive; negative
- mutagenic call (Test System: AMES SALMONELLA TYPHIMURIUM, Strain/Indicator: TA98, Metabolic Activation: RAT, LIVER, S-9, Method: STANDARD PLATE): active; positive
- mutagenic call (Test System: AMES SALMONELLA TYPHIMURIUM, Strain/Indicator: TA100, Metabolic Activation: HAMSTER, LIVER, S-9, AROCLOR 1254 (10 OR 30%), Method: PREINCUBATION): inactive; negative
- mutagenic call [3]: inactive; negative
- mutagenic call [4]: active; positive
- mutagenic call (Test System: AMES SALMONELLA TYPHIMURIUM, Strain/Indicator: TA100, Metabolic Activation: RAT, LIVER, S-9, AROCLOR 1254 (10 OR 30%), Method: PREINCUBATION): inactive; negative
- mutagenic call (Test System: AMES SALMONELLA TYPHIMURIUM, Strain/Indicator: TA100, Metabolic Activation: RAT, LIVER, S-9, Method: STANDARD PLATE): inactive; negative
- mutagenic call (Test System: AMES SALMONELLA TYPHIMURIUM, Strain/Indicator: TA1535, Metabolic Activation: HAMSTER, LIVER, S-9, AROCLOR 1254 (10 OR 30%), Method: PREINCUBATION): inactive; negative
- mutagenic call (Test System: AMES SALMONELLA TYPHIMURIUM, Strain/Indicator: TA1535, Metabolic Activation: NONE, Method: PREINCUBATION): inactive; negative
- mutagenic call (Test System: AMES SALMONELLA TYPHIMURIUM, Strain/Indicator: TA1535, Metabolic Activation: RAT, LIVER, S-9, AROCLOR 1254 (10 OR 30%), Method: PREINCUBATION): inactive; negative

SMILES: CN(C)CCNC(=O)c1cccc2cc(-c3ccccc3)oc12
- mutagenic call [5]: active; positive

SMILES: OC[C@H]1O[C@@H](n2cnc3c(NC[C@H](O)COc4cccc5ccccc45)ncnc32)[C@H](O)[C@@H]1O
- mutagenic call (Test System: AMES SALMONELLA TYPHIMURIUM, Strain/Indicator: TA97, Metabolic Activation: NONE, Method: STANDARD PLATE): inactive; negative
- mutagenic call (Test System: AMES SALMONELLA TYPHIMURIUM, Strain/Indicator: TA97, Metabolic Activation: RAT, LIVER, S-9, AROCLOR 1254, Method: STANDARD PLATE): inactive; negative
- mutagenic call [2]: inactive; negative
- mutagenic call [6]: inactive; negative
- mutagenic call [4]: inactive; negative
- mutagenic call [7]: inactive; negative
- mutagenic call [8]: inactive; negative
- mutagenic call [9]: inactive; negative
- mutagenic call [10]: inactive; negative
- mutagenic call [11]: inactive; negative
- mutagenic call (Test System: CHINESE HAMSTER OVARY, Strain/Indicator: CHO-KL-BH4 (HGPRT), Metabolic Activation: NONE): inactive; negative
- mutagenic call (Test System: CHINESE HAMSTER OVARY, Strain/Indicator: CHO-KL-BH4 (HGPRT), Metabolic Activation: RAT, LIVER, S-9, AROCLOR 1254): inactive; negative
- mutagenic call [12]: inactive; negative
- mutagenic call [13]: active; positive

SMILES: CC1C=Cc2ccc3ccc4ccccc4c3c21 (configuration not stated)
- mutagenic call [7]: inactive; negative

SMILES: O=c1c(O)c(-c2ccccc2)oc2cc(O)cc(O)c12
- mutagenic call [3]: inactive; negative
- mutagenic call (Test System: AMES SALMONELLA TYPHIMURIUM, Strain/Indicator: TA100, Metabolic Activation: RAT LIVER S-9, AROCLOR 1254, Method: PREINCUBATION): inactive; negative

SMILES: Oc1cc2ccccc2c2ccccc12
- mutagenic call [6]: inactive; negative
- mutagenic call [9]: active; positive

SMILES: O=[N+]([O-])c1c(Cl)cc2c(c1Cl)Oc1cc(Cl)c(Cl)cc1O2
- mutagenic call [2]: inactive; negative
- mutagenic call (Test System: AMES SALMONELLA TYPHIMURIUM, Strain/Indicator: TA98, Metabolic Activation: RAT, LIVER, S-9, AROCLOR, Method: STANDARD PLATE): inactive; negative
- mutagenic call [4]: inactive; negative
- mutagenic call (Test System: AMES SALMONELLA TYPHIMURIUM, Strain/Indicator: TA100, Metabolic Activation: RAT, LIVER, S-9, AROCLOR, Method: STANDARD PLATE): inactive; negative

SMILES: c1ccc2cnncc2c1
- mutagenic call (Test System: AMES SALMONELLA TYPHIMURIUM, Strain/Indicator: TA98, Metabolic Activation: HAMSTER, LIVER, S-9, AROCLOR 1254, Method: STANDARD PLATE): inactive; negative
- mutagenic call [1]: inactive; negative
- mutagenic call [2]: inactive; negative
- mutagenic call [6]: inactive; negative
- mutagenic call (Test System: AMES SALMONELLA TYPHIMURIUM, Strain/Indicator: TA98, Metabolic Activation: RAT, LIVER, S-9, PCB, Method: PREINCUBATION): inactive; negative
- mutagenic call (Test System: AMES SALMONELLA TYPHIMURIUM, Strain/Indicator: TA100, Metabolic Activation: HAMSTER, LIVER, S-9, AROCLOR 1254, Method: STANDARD PLATE): inactive; negative
- mutagenic call [3]: inactive; negative
- mutagenic call [4]: inactive; negative
- mutagenic call [7]: inactive; negative
- mutagenic call (Test System: AMES SALMONELLA TYPHIMURIUM, Strain/Indicator: TA100, Metabolic Activation: RAT, LIVER, S-9, PCB, Method: PREINCUBATION): inactive; negative
- mutagenic call (Test System: AMES SALMONELLA TYPHIMURIUM, Strain/Indicator: TA1535, Metabolic Activation: HAMSTER, LIVER, S-9, AROCLOR 1254, Method: STANDARD PLATE): inactive; negative
- mutagenic call [8]: inactive; negative
- mutagenic call [9]: inactive; negative
- mutagenic call (Test System: AMES SALMONELLA TYPHIMURIUM, Strain/Indicator: TA1537, Metabolic Activation: HAMSTER, LIVER, S-9, AROCLOR 1254, Method: STANDARD PLATE): inactive; negative
- mutagenic call [5]: inactive; negative
- mutagenic call (Test System: AMES SALMONELLA TYPHIMURIUM, Strain/Indicator: TA1537, Metabolic Activation: RAT, LIVER, S-9, AROCLOR 1254, Method: STANDARD PLATE): inactive; negative
- mutagenic call (Test System: AMES SALMONELLA TYPHIMURIUM, Strain/Indicator: TA1538, Metabolic Activation: HAMSTER, LIVER, S-9, AROCLOR 1254, Method: STANDARD PLATE): inactive; negative
- mutagenic call [10]: inactive; negative
- mutagenic call [11]: inactive; negative
- mutagenic call [12]: active; positive. reevaluation of results: equivocal
- mutagenic call [13]: active; positive. reevaluation of results: positive
